The values below come from patent publication US20260152636A1, “GELLING SOLUTIONS FOR ADMINISTRATION OF COMPOUNDS TO THE INNER EAR” (Spiral Therapeutics, Inc., priority 2020, published 2026).

One series concerns Hartley guinea pigs. Kind of series: 8-week safety study, ABR threshold shift after intratympanic injection. It is filed as in vivo, guinea pig. The following applies: IT injection; Days 3 and 14; positive control. The text has this:
Groups 1-3 were further divided into subgroups with varying survival times up to 8 weeks. The number of ears for the 4-week and 8-week timepoints in this study were powered to detect a 20 dB shift from baseline in the ABR threshold measurement at each of the three test frequencies (1-way t-test; independent means; apriori; power=0.95), using sample data to estimate variability from pilot studies. Auditory brainstem responses and blood sampling were collected at specified in-life timepoints, including terminus. Perilymph sampling, middle ear visualization, and histology sample preparation were performed on specified animals at terminus.

The next series has as its system MD patients. The following applies: cited from earlier work.
Series [1] in a line: Dexamethasone levels in plasma and perilymph after single IT injection in green monkey. The following applies: through Day 22. The format is in vivo, African green monkey (Chlorocebus sabaeus). The procedure: Information on absorption, distribution and pharmacokinetics of the PEG-trilysine polymer formulation by otic administration were obtained from a pharmacokinetic (PK) and tolerability study conducted in the African green monkey (Chlorocebus sabaeus)
The perilymph and plasma concentrations of the PEG-trilysine polymer formulation were evaluated following a single IT injection. Perilymph and plasma levels of test and control articles were measured after 1, 10 and 22 days. Given the small study size (N=9 enrolled) and number of total ears treated, PK data are presented as descriptive statistics only.
The absorption and distribution of dexamethasone was also investigated in African green monkeys.

The conditions of series [2]: guinea pig, in vivo.
Description: (§1) An 8-week toxicology study was performed to assess the safety and pharmacokinetics of intratympanic administration of a PEG-trilysine polymer formulation in Hartley guinea pigs. […] Hartley guinea pigs of both sexes [n=46 (23 males and 23 females) were used for the study. Following 3 to 7 days of acclimation, all guinea pigs underwent baseline ABRs tests at 4, 10, and 20 kHz.
(§2) Perilymph samples were collected at terminus at 3 days, 1 week, 4 weeks, and 8 weeks post administration.
A further series in a line: in vivo. The following applies: both, Hartley, guinea pig, other: intratympanic, 5 μL.

Description for in vivo: as §1, §2

In the case of gentamicin, the ABR threshold shift in the series on Hartley guinea pigs is at least 55 dB. For the same molecule, in the series on MD patients (IT therapy, one study), the “Improvement in aural fullness” value is on record as 31%.

As to `C[C@@H]1C[C@H]2[C@@H]3CCC4=CC(=O)C=C[C@]4(C)[C@@]3(F)[C@@H](O)C[C@]2(C)[C@@]1(O)C(=O)CO` [Dexamethasone, dexamethasone], the “Plasma levels of dexamethasone over time” value in series [1] was “remained within detectable limits through Day 22”. Also, in series [2], the “Perilymph Mean (ng/mL)” value is on record as “BLQ” and the “Plasma Mean (ng/mL)” value is listed as “BLQ”. In addition, the “Incidence of TM perforation” value in the series with MD patients (end of Phase 1b study, 3 mg or 12 mg single IT injection) is on record as 3%. Also, the Safety and tolerability result with MD patients (single IT injection of 12 mg, formulated with poloxamer 407, unilateral MD) was “safe, well-tolerated”. In “in vivo” (perilymph), this molecule gave a concentration at 1 week of 1700 ng/mL and a concentration at 3 days of 109 ng/mL. In “in vivo” (plasma), this molecule came in with a concentration at 1 week of 3.2 ng/mL and a concentration at 3 days of 5.5 ng/mL.
